Laboratory results from patent US10617693B2, “Methods of treating and/or preventing actinic keratosis” (Athenex, Inc., priority 2017, dated 2020).

Columns and labels:
[1] = test system: subjects with AK on the dorsal forearm; assay: Phase 1 study KX01-AK-01-US: local skin reactions (investigator score 0 none to 4 severe; subject score 0 none to 3 severe) and adverse events
Procedure: (§1) A Phase 1, single-center, safety, tolerability and pharmacokinetic study of KX-01 was performed on subjects with AK on the dorsal forearm. This was an open-label, uncontrolled, nonrandomized, sequential group clinical trial conducted at a single investigational center in the United States. The primary objectives of the study were to assess the safety, tolerability and pharmacokinetics of KX-01 in subjects with AK. The secondary objective was to evaluate the activity of KX-01 administered topically to the dorsal forearm in subjects with AK.
(§2) KX-01 was administered topically on treatment days. All subjects were monitored for safety and tolerability that included LSRs, AEs, vital signs, clinical laboratory tests, ECGs, and physical examinations at baseline and at pre-defined time points during treatment and follow-up on days 1, 2, 3, 4, 5, 8, 10, 17, 31 and 45.
(§3) LSRs (erythema, flaking/scaling, crusting, swelling, vesiculation/pustulation, erosion/ulceration) were assessed by the investigator or trained designee using a 4-point scale according to the protocol. The subject's assessment of the symptoms (stinging/burning, pruritus) associated with irritation of the treatment area was evaluated on a 4-point scale (0=none, 1=mild, 2=moderate, 3=severe). Subjects were queried for spontaneously reported AEs at each study visit before assessment of LSRs. LSRs and AEs were reported separately. All LSRs were to be followed to resolution or stabilization.

[2] = test system: subjects with AK on the dorsal forearm; conditions: human, in vivo
Procedure: as §1, §2, §3

[3] = Cohort 1: 0.5 mg/25 cm^2 QD x3 days, N=4
[4] = Cohort 2: 2 mg/100 cm^2 QD x3 days, N=10
[5] = Cohort 3: 0.5 mg/25 cm^2 QD x5 days, N=8
[6] = Cohort 4: 2 mg/100 cm^2 QD x5 days, N=8

In the case of `O=C(Cc1ccc(-c2ccc(OCCN3CCOCC3)cc2)cn1)NCc1ccccc1` [KX-01], the “Day LSRs tended to peak” value ([1]; 3-day treatment cohorts (Cohorts 1 and 2)) is reported as roughly 5 days, the “Day LSRs tended to peak” value ([1]; 5-day treatment cohorts (Cohorts 3 and 4)) is reported as roughly 10 days and the “Burning (subject-assessed) max score 0, number of subjects” value [1, 3] is reported as 4. The “Burning (subject-assessed) max score 1, number of subjects” value [1, 3] was 0, the “Burning (subject-assessed) max score 2, number of subjects” value [1, 3] was 0 and the “Burning (subject-assessed) max score 3, number of subjects” value [1, 3] was 0. For the same molecule, the “Crusting max score 0, number of subjects” value [1, 3] was 4, the “Crusting max score 1, number of subjects” value [1, 3] was 0 and the “Crusting max score 2, number of subjects” value [1, 3] was 0. For the same molecule, the “Crusting max score 3, number of subjects” value [1, 3] was 0, the “Crusting max score 4, number of subjects” value [1, 3] was 0 and the “Erosions/ulcers max score 0, number of subjects” value [1, 3] was 4. The “Erosions/ulcers max score 1, number of subjects” value [1, 3] was 0, the “Erosions/ulcers max score 2, number of subjects” value [1, 3] was 0 and the “Erosions/ulcers max score 3, number of subjects” value [1, 3] was 0. For the same molecule, the “Erosions/ulcers max score 4, number of subjects” value [1, 3] was 0, the “Erythema max score 0, number of subjects” value [1, 3] was 0 and the “Erythema max score 1, number of subjects” value [1, 3] was 2. The “Erythema max score 2, number of subjects” value [1, 3] was 1, the “Erythema max score 3, number of subjects” value [1, 3] was 1 and the “Erythema max score 4, number of subjects” value [1, 3] was 0. The “Flaking/scaling max score 0, number of subjects” value [1, 3] was 0, the “Flaking/scaling max score 1, number of subjects” value [1, 3] was 3 and the “Flaking/scaling max score 2, number of subjects” value [1, 3] was 0. For the same molecule, the “Flaking/scaling max score 3, number of subjects” value [1, 3] was 1, the “Flaking/scaling max score 4, number of subjects” value [1, 3] was 0 and the “Pruritus (subject-assessed) max score 0, number of subjects” value [1, 3] was 3. The “Pruritus (subject-assessed) max score 1, number of subjects” value [1, 3] was 1, the “Pruritus (subject-assessed) max score 2, number of subjects” value [1, 3] was 0 and the “Pruritus (subject-assessed) max score 3, number of subjects” value [1, 3] was 0. For the same molecule, the “Stinging (subject-assessed) max score 0, number of subjects” value [1, 3] was 3, the “Stinging (subject-assessed) max score 1, number of subjects” value [1, 3] was 1 and the “Stinging (subject-assessed) max score 2, number of subjects” value [1, 3] was 0. The “Stinging (subject-assessed) max score 3, number of subjects” value [1, 3] was 0, the “Swelling max score 0, number of subjects” value [1, 3] was 4 and the “Swelling max score 1, number of subjects” value [1, 3] was 0. For the same molecule, the “Swelling max score 2, number of subjects” value [1, 3] was 0, the “Swelling max score 3, number of subjects” value [1, 3] was 0 and the “Swelling max score 4, number of subjects” value [1, 3] was 0. For the same molecule, the “Vesicles/pustules max score 0, number of subjects” value [1, 3] was 4, the “Vesicles/pustules max score 1, number of subjects” value [1, 3] was 0 and the “Vesicles/pustules max score 2, number of subjects” value [1, 3] was 0. For the same molecule, the “Vesicles/pustules max score 3, number of subjects” value [1, 3] was 0, the “Vesicles/pustules max score 4, number of subjects” value [1, 3] was 0 and the “Burning (subject-assessed) max score 0, number of subjects” value [1, 4] was 6. For the same molecule, the “Burning (subject-assessed) max score 1, number of subjects” value [1, 4] was 3, the “Burning (subject-assessed) max score 2, number of subjects” value [1, 4] was 1 and the “Burning (subject-assessed) max score 3, number of subjects” value [1, 4] was 0. The “Crusting max score 0, number of subjects” value [1, 4] was 5, the “Crusting max score 1, number of subjects” value [1, 4] was 5 and the “Crusting max score 2, number of subjects” value [1, 4] was 0. The “Crusting max score 3, number of subjects” value [1, 4] was 0, the “Crusting max score 4, number of subjects” value [1, 4] was 0 and the “Erosions/ulcers max score 0, number of subjects” value [1, 4] was 10. For the same molecule, the “Erosions/ulcers max score 1, number of subjects” value [1, 4] was 0, the “Erosions/ulcers max score 2, number of subjects” value [1, 4] was 0 and the “Erosions/ulcers max score 3, number of subjects” value [1, 4] was 0. For the same molecule, the “Erosions/ulcers max score 4, number of subjects” value [1, 4] was 0, the “Erythema max score 0, number of subjects” value [1, 4] was 0 and the “Erythema max score 1, number of subjects” value [1, 4] was 6. The “Erythema max score 2, number of subjects” value [1, 4] was 2, the “Erythema max score 3, number of subjects” value [1, 4] was 2 and the “Erythema max score 4, number of subjects” value [1, 4] was 0. The “Flaking/scaling max score 0, number of subjects” value [1, 4] was 1, the “Flaking/scaling max score 1, number of subjects” value [1, 4] was 2 and the “Flaking/scaling max score 2, number of subjects” value [1, 4] was 1. For the same molecule, the “Flaking/scaling max score 3, number of subjects” value [1, 4] was 6, the “Flaking/scaling max score 4, number of subjects” value [1, 4] was 0 and the “Pruritus (subject-assessed) max score 0, number of subjects” value [1, 4] was 4. The “Pruritus (subject-assessed) max score 1, number of subjects” value [1, 4] was 6, the “Pruritus (subject-assessed) max score 2, number of subjects” value [1, 4] was 0 and the “Pruritus (subject-assessed) max score 3, number of subjects” value [1, 4] was 0. The “Stinging (subject-assessed) max score 0, number of subjects” value [1, 4] was 8, the “Stinging (subject-assessed) max score 1, number of subjects” value [1, 4] was 2 and the “Stinging (subject-assessed) max score 2, number of subjects” value [1, 4] was 0. For the same molecule, the “Stinging (subject-assessed) max score 3, number of subjects” value [1, 4] was 0, the “Swelling max score 0, number of subjects” value [1, 4] was 8 and the “Swelling max score 1, number of subjects” value [1, 4] was 2. For the same molecule, the “Swelling max score 2, number of subjects” value [1, 4] was 0, the “Swelling max score 3, number of subjects” value [1, 4] was 0 and the “Swelling max score 4, number of subjects” value [1, 4] was 0. For the same molecule, the “Vesicles/pustules max score 0, number of subjects” value [1, 4] was 10, the “Vesicles/pustules max score 1, number of subjects” value [1, 4] was 0 and the “Vesicles/pustules max score 2, number of subjects” value [1, 4] was 0. The “Vesicles/pustules max score 3, number of subjects” value [1, 4] was 0, the “Vesicles/pustules max score 4, number of subjects” value [1, 4] was 0 and the “Burning (subject-assessed) max score 0, number of subjects” value [1, 5] was 4. For the same molecule, the “Burning (subject-assessed) max score 1, number of subjects” value [1, 5] was 3, the “Burning (subject-assessed) max score 2, number of subjects” value [1, 5] was 1 and the “Burning (subject-assessed) max score 3, number of subjects” value [1, 5] was 0. For the same molecule, the “Crusting max score 0, number of subjects” value [1, 5] was 1, the “Crusting max score 1, number of subjects” value [1, 5] was 7 and the “Crusting max score 2, number of subjects” value [1, 5] was 0. The “Crusting max score 3, number of subjects” value [1, 5] was 0, the “Crusting max score 4, number of subjects” value [1, 5] was 0 and the “Erosions/ulcers max score 0, number of subjects” value [1, 5] was 8. The “Erosions/ulcers max score 1, number of subjects” value [1, 5] was 0, the “Erosions/ulcers max score 2, number of subjects” value [1, 5] was 0 and the “Erosions/ulcers max score 3, number of subjects” value [1, 5] was 0. For the same molecule, the “Erosions/ulcers max score 4, number of subjects” value [1, 5] was 0, the “Erythema max score 0, number of subjects” value [1, 5] was 0 and the “Erythema max score 1, number of subjects” value [1, 5] was 2. For the same molecule, the “Erythema max score 2, number of subjects” value [1, 5] was 4, the “Erythema max score 3, number of subjects” value [1, 5] was 2 and the “Erythema max score 4, number of subjects” value [1, 5] was 0. For the same molecule, the “Flaking/scaling max score 0, number of subjects” value [1, 5] was 0, the “Flaking/scaling max score 1, number of subjects” value [1, 5] was 2 and the “Flaking/scaling max score 2, number of subjects” value [1, 5] was 2. The “Flaking/scaling max score 3, number of subjects” value [1, 5] was 4, the “Flaking/scaling max score 4, number of subjects” value [1, 5] was 0 and the “Pruritus (subject-assessed) max score 0, number of subjects” value [1, 5] was 2. For the same molecule, the “Pruritus (subject-assessed) max score 1, number of subjects” value [1, 5] was 4, the “Pruritus (subject-assessed) max score 2, number of subjects” value [1, 5] was 1 and the “Pruritus (subject-assessed) max score 3, number of subjects” value [1, 5] was 1. The “Stinging (subject-assessed) max score 0, number of subjects” value [1, 5] was 6, the “Stinging (subject-assessed) max score 1, number of subjects” value [1, 5] was 1 and the “Stinging (subject-assessed) max score 2, number of subjects” value [1, 5] was 1. The “Stinging (subject-assessed) max score 3, number of subjects” value [1, 5] was 0, the “Swelling max score 0, number of subjects” value [1, 5] was 4 and the “Swelling max score 1, number of subjects” value [1, 5] was 1. For the same molecule, the “Swelling max score 2, number of subjects” value [1, 5] was 0, the “Swelling max score 3, number of subjects” value [1, 5] was 3 and the “Swelling max score 4, number of subjects” value [1, 5] was 0. The “Vesicles/pustules max score 0, number of subjects” value [1, 5] was 8, the “Vesicles/pustules max score 1, number of subjects” value [1, 5] was 0 and the “Vesicles/pustules max score 2, number of subjects” value [1, 5] was 0. The “Vesicles/pustules max score 3, number of subjects” value [1, 5] was 0, the “Vesicles/pustules max score 4, number of subjects” value [1, 5] was 0 and the “Burning (subject-assessed) max score 0, number of subjects” value [1, 6] was 4. The “Burning (subject-assessed) max score 1, number of subjects” value [1, 6] was 4, the “Burning (subject-assessed) max score 2, number of subjects” value [1, 6] was 0 and the “Burning (subject-assessed) max score 3, number of subjects” value [1, 6] was 0. For the same molecule, the “Crusting max score 0, number of subjects” value [1, 6] was 4, the “Crusting max score 1, number of subjects” value [1, 6] was 4 and the “Crusting max score 2, number of subjects” value [1, 6] was 0. The “Crusting max score 3, number of subjects” value [1, 6] was 0, the “Crusting max score 4, number of subjects” value [1, 6] was 0 and the “Erosions/ulcers max score 0, number of subjects” value [1, 6] was 7. The “Erosions/ulcers max score 1, number of subjects” value [1, 6] was 1, the “Erosions/ulcers max score 2, number of subjects” value [1, 6] was 0 and the “Erosions/ulcers max score 3, number of subjects” value [1, 6] was 0. The “Erosions/ulcers max score 4, number of subjects” value [1, 6] was 0, the “Erythema max score 0, number of subjects” value [1, 6] was 0 and the “Erythema max score 1, number of subjects” value [1, 6] was 2. The “Erythema max score 2, number of subjects” value [1, 6] was 4, the “Erythema max score 3, number of subjects” value [1, 6] was 2 and the “Erythema max score 4, number of subjects” value [1, 6] was 0. For the same molecule, the “Flaking/scaling max score 0, number of subjects” value [1, 6] was 0, the “Flaking/scaling max score 1, number of subjects” value [1, 6] was 2 and the “Flaking/scaling max score 2, number of subjects” value [1, 6] was 4. The “Flaking/scaling max score 3, number of subjects” value [1, 6] was 2, the “Flaking/scaling max score 4, number of subjects” value [1, 6] was 0 and the “Pruritus (subject-assessed) max score 0, number of subjects” value [1, 6] was 0. For the same molecule, the “Pruritus (subject-assessed) max score 1, number of subjects” value [1, 6] was 4, the “Pruritus (subject-assessed) max score 2, number of subjects” value [1, 6] was 4 and the “Pruritus (subject-assessed) max score 3, number of subjects” value [1, 6] was 0. The “Stinging (subject-assessed) max score 0, number of subjects” value [1, 6] was 5, the “Stinging (subject-assessed) max score 1, number of subjects” value [1, 6] was 3 and the “Stinging (subject-assessed) max score 2, number of subjects” value [1, 6] was 0. For the same molecule, the “Stinging (subject-assessed) max score 3, number of subjects” value [1, 6] was 0, the “Swelling max score 0, number of subjects” value [1, 6] was 1 and the “Swelling max score 1, number of subjects” value [1, 6] was 6. The “Swelling max score 2, number of subjects” value [1, 6] was 1, the “Swelling max score 3, number of subjects” value [1, 6] was 0 and the “Swelling max score 4, number of subjects” value [1, 6] was 0. The “Vesicles/pustules max score 0, number of subjects” value [1, 6] was 8, the “Vesicles/pustules max score 1, number of subjects” value [1, 6] was 0 and the “Vesicles/pustules max score 2, number of subjects” value [1, 6] was 0. For the same molecule, the “Vesicles/pustules max score 3, number of subjects” value [1, 6] was 0, the “Vesicles/pustules max score 4, number of subjects” value [1, 6] was 0 and the “Severity of TEAEs” value ([1]; all TEAEs) was “mild to moderate”. For the same molecule, the Local tolerability ([1]; all cohorts) was “acceptable”, the “Number of TEAEs” value ([1]; all cohorts) was 10 and the “Subjects reporting treatment emergent adverse events (TEAEs)” value ([1]; all cohorts) was “Four of 30”. The “Subjects with a vesicle or pustule” value ([1]; all cohorts) was “No subject”, the “Subjects with an LSR score of 4 in any category” value ([1]; all cohorts) was “No subject” and the “Subjects with LSRs as assessed by the Investigator” value ([1]; all cohorts, 30 subjects) was 30. For the same molecule, the “Day by which application-site symptoms resolved” value ([1]; human, in vivo) was no more than 45 days, the “Nature of local skin reactions” value ([1]; human, in vivo) was “primarily mild” and the “Day LSRs appeared” value ([1]; in general) was 2 days. The “Subjects with erythema and/or flaking/scaling score 1 or 2 at day 45” value ([1]; of 30 subjects) was “Fifteen” and the “Serious adverse event (SAE) or death” value [2] was “no serious adverse event (SAE) or death”.
